# Assay results from patent publication US4325949A, “Combinations of agents which give enhanced anti-inflammatory activity” (American Cyanamid Company, priority 1980, dated 1982).
# “And” between values parts separate entries of the source, which are not always exact repeats. Identical values can stand only once.
# Legend:
# [1] = system: adjuvant induced arthritis; experiment: adjuvant induced arthritis test in the rat (primary and secondary lesions); assay type: in vivo, rat (Royal Hart, Wistar strain)
# Method: (§1) Groups of three Royal Hart, Wistar strain rats, weighing 200±10 g. each were injected intradermally in the right hind paw with Freund's adjuvant (dried human tubercle bacilli in a mineral oil vehicle) at a dose of 2 mg./kg. of body weight. Test compositions were administered orally in a 1.5% starch vehicle at various doses once daily on days 0 through 13 post challenge. Control rats were treated in a similar manner, but given only starch vehicle. On the 14th, 21st, 28th and 35th days post challenge the diameter of the injected paw (primary lesion) was measured by micrometer caliper. The volume of inflamed paws were estimated from these measurements and the results are expressed as percent inhibition of swelling as compared to controls. At the same time, the other inflamed sites, such as ears, paws and tail (secondary lesions) were observed and each rat was graded as to degree of inflammation and swelling present. The grading is based on a scale of 0 to 24, where 0 represents a complete absence of induced arthritic modules and 24 represents the maximum degree of inflammation. The mean grade for each treated group is calculated and the effects of each test compound are expressed as percent inhibition of the control grade. The following Tables I-V record the results of tests conducted with the compositions of this invention and conventional anti-inflammatory agents both separately and in combination. All tests were replicated several times. Each treatment group represents a total of 18 rats. Each challenged control group comprised 36 rats and each unchallenged control group was 9 rats.
# [2] = body weight gain in the adjuvant induced arthritis test in the rat; assay type: in vivo, rat (Royal Hart, Wistar strain)
# Method: as §1
# arthritic paw swelling = settings: S. Wong et al. 1973; G. R. Bobalick et al. 1974; cited from earlier work
# [3] = oral 25 mg/kg once daily, day 14
# [4] = oral 25 mg/kg once daily, day 21
# [5] = oral 25 mg/kg once daily, day 28
# [6] = oral 25 mg/kg once daily, day 35
# [7] = oral 50 mg/kg once daily, day 14
# [8] = oral 50 mg/kg once daily, day 21
# [9] = oral 50 mg/kg once daily, day 28
# [10] = oral 50 mg/kg once daily, day 35
# [11] = oral 5 mg/kg once daily, day 14
# [12] = oral 5 mg/kg once daily, day 21
# [13] = oral 5 mg/kg once daily, day 28
# [14] = oral 5 mg/kg once daily, day 35
# [15] = oral 10 mg/kg once daily, day 14
# [16] = oral 10 mg/kg once daily, day 21
# [17] = oral 10 mg/kg once daily, day 28
# [18] = oral 10 mg/kg once daily, day 35
# [19] = oral 12.5 mg/kg once daily, day 14, 12.5 mg/kg
# [20] = oral 12.5 mg/kg once daily, day 21, 12.5 mg/kg
# [21] = oral 12.5 mg/kg once daily, day 28
# [22] = oral 12.5 mg/kg once daily, day 35, 12.5 mg/kg
# [23] = oral 25 mg/kg once daily, day 14, 25 mg/kg
# [24] = oral 25 mg/kg once daily, day 21, 25 mg/kg
# [25] = oral 25 mg/kg once daily, day 28, 25 mg/kg
# [26] = oral 25 mg/kg once daily, day 35, 25 mg/kg
# [27] = oral 100 mg/kg once daily, day 14
# [28] = oral 100 mg/kg once daily, day 21
# [29] = oral 100 mg/kg once daily, day 21, 100 mg/kg
# [30] = oral 0.25 mg/kg once daily, day 14, 0.25 mg/kg
# [31] = oral 0.5 mg/kg once daily, day 14, 0.5 mg/kg
# [32] = oral 0.5 mg/kg once daily, day 21, 0.5 mg/kg
# [33] = oral 1.0 mg/kg once daily, day 14, 1 mg/kg
# [34] = oral 1.0 mg/kg once daily, day 21, 1 mg/kg
smiles,measurement,setting,value
N#CCC(=O)c1ccc(F)cc1 [(p-Fluorobenzoyl)-acetonitrile],Primary Lesions (% Inhibition),[1]; [3],30%
same,Secondary Lesions (% Inhibition),[1]; [3],23%
same,Primary Lesions (% Inhibition),[1]; [4],17%
same,Secondary Lesions (% Inhibition),[1]; [4],0%
same,Primary Lesions (% Inhibition),[1]; [5],0%
same,Secondary Lesions (% Inhibition),[1]; [5],0%
same,Primary Lesions (% Inhibition),[1]; [6],6%
same,Secondary Lesions (% Inhibition),[1]; [6],7%
same,Primary Lesions (% Inhibition),[1]; [7],53%
same,Secondary Lesions (% Inhibition),[1]; [7],34%
same,Primary Lesions (% Inhibition),[1]; [8],32%
same,Secondary Lesions (% Inhibition),[1]; [8],10%
same,Primary Lesions (% Inhibition),[1]; [9],27%
same,Secondary Lesions (% Inhibition),[1]; [9],28%
same,Primary Lesions (% Inhibition),[1]; [10],22%
same,Secondary Lesions (% Inhibition),[1]; [10],19%
same,Body Weight Gain in Grams,[2]; [3],71 Grams
same,Body Weight Gain in Grams,[2]; [4],65 Grams
same,Body Weight Gain in Grams,[2]; [5],80 Grams
same,Body Weight Gain in Grams,[2]; [6],111 Grams
same,Body Weight Gain in Grams,[2]; [7],75 Grams
same,Body Weight Gain in Grams,[2]; [8],77 Grams
same,Body Weight Gain in Grams,[2]; [9],93 Grams
same,Body Weight Gain in Grams,[2]; [10],125 Grams
N#CC=C(N)c1cccs1 [β-Amino-2-thiopheneacrylonitrile],Primary Lesions (% Inhibition),[1]; [7],16%
same,Secondary Lesions (% Inhibition),[1]; [7],13%
same,Primary Lesions (% Inhibition),[1]; [8],14%
same,Secondary Lesions (% Inhibition),[1]; [8],0%
same,Primary Lesions (% Inhibition),[1]; [9],6%
same,Secondary Lesions (% Inhibition),[1]; [9],4%
same,Primary Lesions (% Inhibition),[1]; [10],1%
same,Secondary Lesions (% Inhibition),[1]; [10],11%
same,Body Weight Gain in Grams,[2]; [7],63 Grams
same,Body Weight Gain in Grams,[2]; [8],66 Grams
same,Body Weight Gain in Grams,[2]; [9],76 Grams
same,Body Weight Gain in Grams,[2]; [10],108 Grams
"C[C@]12C=CC(=O)C=C1CC[C@@H]1[C@@H]2[C@@H](O)C[C@@]2(C)[C@H]1CC[C@]2(O)C(=O)CO [Prednisolone, reference compound]",Primary Lesions (% Inhibition),[1]; [11],63%
same,Secondary Lesions (% Inhibition),[1]; [11],45%
same,Primary Lesions (% Inhibition),[1]; [12],24%
same,Secondary Lesions (% Inhibition),[1]; [12],16%
same,Primary Lesions (% Inhibition),[1]; [13],17%
same,Secondary Lesions (% Inhibition),[1]; [13],5%
same,Primary Lesions (% Inhibition),[1]; [14],11%
same,Secondary Lesions (% Inhibition),[1]; [14],20%
same,Primary Lesions (% Inhibition),[1]; [15],57%
same,Secondary Lesions (% Inhibition),[1]; [15],55%
same,Primary Lesions (% Inhibition),[1]; [16],24%
same,Secondary Lesions (% Inhibition),[1]; [16],21%
same,Primary Lesions (% Inhibition),[1]; [17],14%
same,Secondary Lesions (% Inhibition),[1]; [17],3%
same,Primary Lesions (% Inhibition),[1]; [18],13%
same,Secondary Lesions (% Inhibition),[1]; [18],17%
same,Body Weight Gain in Grams,[2]; [11],22 Grams
same,Body Weight Gain in Grams,[2]; [12],26 Grams
same,Body Weight Gain in Grams,[2]; [13],44 Grams
same,Body Weight Gain in Grams,[2]; [14],71 Grams
same,Body Weight Gain in Grams,[2]; [15],23 Grams
same,Body Weight Gain in Grams,[2]; [16],47 Grams
same,Body Weight Gain in Grams,[2]; [17],75 Grams
same,Body Weight Gain in Grams,[2]; [18],95 Grams
N#CCC(=O)c1ccccc1 [Benzoylacetonitrile],Primary Lesions (% Inhibition),[1]; [19],44% and 49%
same,Secondary Lesions (% Inhibition),[1]; [19],45% and 59%
same,Primary Lesions (% Inhibition),[1]; [20],16% and 32%
same,Secondary Lesions (% Inhibition),[1]; [21],25%
same,Secondary Lesions (% Inhibition),[1]; [22],22% and 26%
same,Primary Lesions (% Inhibition),[1]; [23],60% and 62% and 36%
same,Secondary Lesions (% Inhibition),[1]; [23],70% and 62% and 50%
same,Primary Lesions (% Inhibition),[1]; [24],36% and 38% and 24%
same,Secondary Lesions (% Inhibition),[1]; [25],20% and 19%
same,Secondary Lesions (% Inhibition),[1]; [26],38% and 20%
same,Primary Lesions (% Inhibition),[1]; [7],60%
same,Secondary Lesions (% Inhibition),[1]; [7],66%
same,Primary Lesions (% Inhibition),[1]; [8],45%
same,Secondary Lesions (% Inhibition),[1]; [8],43%
same,Primary Lesions (% Inhibition),[1]; [27],55%
same,Secondary Lesions (% Inhibition),[1]; [27],76%
same,Primary Lesions (% Inhibition),[1]; [28],54%
same,Secondary Lesions (% Inhibition),[1]; [28],56%
same,Body Weight Gain in Grams,[2]; [19],57 Grams and 49 Grams
same,Body Weight Gain in Grams,[2]; [20],53 Grams and 38 Grams
same,Body Weight Gain in Grams,[2]; [21],55 Grams
same,Body Weight Gain in Grams,[2]; [22],81 Grams and 68 Grams
same,Body Weight Gain in Grams,[2]; [23],52 Grams and 47 Grams and 57 Grams
same,Body Weight Gain in Grams,[2]; [24],52 Grams and 47 Grams and 57 Grams
same,Body Weight Gain in Grams,[2]; [25],75 Grams and 51 Grams
same,Body Weight Gain in Grams,[2]; [26],86 Grams and 69 Grams
same,Body Weight Gain in Grams,[2]; [7],58 Grams
same,Body Weight Gain in Grams,[2]; [8],62 Grams
same,Body Weight Gain in Grams,[2]; [27],56 Grams
same,Body Weight Gain in Grams,[2]; [28],79 Grams
"CC(=O)Oc1ccccc1C(=O)O [Aspirin, 2-(acetyloxy)benzoic acid, reference compound]",Primary Lesions (% Inhibition),"[1]; oral 50 mg/kg once daily, day 14, 50 mg/kg",21% and 16%
same,Secondary Lesions (% Inhibition),"[1]; oral 50 mg/kg once daily, day 21, 50 mg/kg",12% and 10%
same,Secondary Lesions (% Inhibition),"[1]; oral 50 mg/kg once daily, day 28, 50 mg/kg",31% and 20%
same,Primary Lesions (% Inhibition),[1]; [10],0%
same,Primary Lesions (% Inhibition),[1]; [29],8% and 2%
same,Primary Lesions (% Inhibition),"[1]; oral 100 mg/kg once daily, day 35, 100 mg/kg",5% and 1%
same,Body Weight Gain in Grams,"[2]; oral 100 mg/kg once daily, day 14, 100 mg/kg",45 Grams and 47 Grams
same,Body Weight Gain in Grams,[2]; [29],42 Grams and 46 Grams
same,Body Weight Gain in Grams,"[2]; oral 100 mg/kg once daily, day 28, 100 mg/kg",44 Grams and 57 Grams
N#CCC(=N)c1ccccc1 [Benzimidoylacetonitrile],Primary Lesions (% Inhibition),[1]; [3],56%
same,Secondary Lesions (% Inhibition),[1]; [3],63%
same,Primary Lesions (% Inhibition),[1]; [4],33%
same,Secondary Lesions (% Inhibition),[1]; [4],24%
same,Primary Lesions (% Inhibition),[1]; [7],68%
same,Secondary Lesions (% Inhibition),[1]; [7],70%
same,Primary Lesions (% Inhibition),[1]; [8],58%
same,Secondary Lesions (% Inhibition),[1]; [8],43%
same,Primary Lesions (% Inhibition),[1]; [27],68%
same,Secondary Lesions (% Inhibition),[1]; [27],75%
same,Primary Lesions (% Inhibition),[1]; [28],55%
same,Secondary Lesions (% Inhibition),[1]; [28],34%
same,Body Weight Gain in Grams,[2]; [3],72 Grams
same,Body Weight Gain in Grams,[2]; [4],66 Grams
same,Body Weight Gain in Grams,[2]; [7],77 Grams
same,Body Weight Gain in Grams,[2]; [8],80 Grams
same,Body Weight Gain in Grams,[2]; [27],70 Grams
same,Body Weight Gain in Grams,[2]; [28],88 Grams
"COc1ccc2c(c1)c(CC(=O)O)c(C)n2C(=O)c1ccc(Cl)cc1 [Indomethacin, 1-(4-chlorobenzoyl)-5-methoxy-2-methyl-1H-indole-3-acetic acid, reference compound]",Primary Lesions (% Inhibition),[1]; [30],29% and 44%
same,Secondary Lesions (% Inhibition),[1]; [30],22% and 25%
same,Primary Lesions (% Inhibition),[1]; [31],50% and 41%
same,Primary Lesions (% Inhibition),"[1]; oral 0.5 mg/kg once daily, day 21",8%
same,Secondary Lesions (% Inhibition),[1]; [32],10% and 3%
same,Primary Lesions (% Inhibition),[1]; [33],63% and 57%
same,Secondary Lesions (% Inhibition),[1]; [33],54% and 48%
same,Primary Lesions (% Inhibition),[1]; [34],27% and 24%
same,Secondary Lesions (% Inhibition),[1]; [34],30% and 27%
same,Body Weight Gain in Grams,[2]; [30],59 Grams and 43 Grams
same,Body Weight Gain in Grams,"[2]; oral 0.25 mg/kg once daily, day 21, 0.25 mg/kg",45 Grams and 46 Grams
same,Body Weight Gain in Grams,[2]; [31],71 Grams and 61 Grams
same,Body Weight Gain in Grams,[2]; [32],57 Grams and 51 Grams
same,Body Weight Gain in Grams,[2]; [33],92 Grams and 76 Grams
same,Body Weight Gain in Grams,[2]; [34],84 Grams and 70 Grams
same,arthritic paw swelling,arthritic paw swelling,inhibit arthritic paw swelling
same,joint and bone deterioration,arthritic paw swelling,prevent joint and bone deterioration
